Measurements: PubChem BioAssay AID1552 (Sanford-Burnham Center for Chemical Genomics, 2009)
Activity calls are given as the source filed them. How the calls were made is not given here.

Each molecule was assayed against Ubiquitin-conjugating enzyme E2 N (Homo sapiens) (UniProt P61088) (assay: NMR detection of UBE2N ligand binding – biophysical, purified protein (AID 1552)). Conditions: NMR binding to purified UBE2N.
Chain of Ubiquitin-conjugating enzyme E2 N (Homo sapiens) (P61088 whole entry, looked up): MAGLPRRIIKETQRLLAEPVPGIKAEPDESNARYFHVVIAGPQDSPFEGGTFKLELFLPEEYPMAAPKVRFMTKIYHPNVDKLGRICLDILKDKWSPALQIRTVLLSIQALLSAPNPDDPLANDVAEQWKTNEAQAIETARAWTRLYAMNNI

SMILES	Kd
O=c1cc(CO)oc(CN2CCCCC2)c1O	> 4 mM (inactive)
NS(=O)(=O)c1ccc(F)cc1	> 4 mM (inactive)
O=C(NCc1cccs1)c1ccncc1	> 4 mM (inactive)
O=C(Cc1cccs1)Nc1ccon1	> 4 mM (inactive)
Cc1nc2c(=O)[nH]c3ccccc3c2o1	> 4 mM (inactive)
Cc1cc(C)n(C/C=C/Cn2nc(C)cc2C)n1	> 4 mM (inactive)
NC(=O)CN=Cc1c(O)[nH]c2ccccc12	> 4 mM (inactive)
COC(=O)c1cc(-c2c(C)nn(-c3ccccc3)c2C)n[nH]1	> 4 mM (inactive)
O=C1CC(=O)N(c2ccccc2)c2ccccc21	> 4 mM (inactive)
C/C=C(/C)C(=O)O[C@@H]1[C@H](OC(C)=O)[C@@]2(CO)C(CC1(C)C)C1=CCC3[C@@]4(C)CC[C@H](O[C@@H]5O[C@H](C(=O)O)[C@@H](O[C@@H]6O[C@H](CO)[C@@H](O)[C@H](O)[C@H]6O)[C@H](O)[C@H]5O[C@@H]5O[C@H](CO)[C@@H](O)[C@H](O)[C@H]5O)[C@](C)(CO)C4CC[C@@]3(C)[C@]1(C)C[C@H]2O (stereo partly specified)	> 4 mM (inactive)
C[N+](C)(C)CC(=O)[O-]	> 4 mM (inactive)
Cc1cc(OC(=O)c2c(C)cc(O)cc2O)cc(O)c1C(=O)O	> 4 mM (inactive)
O=C(C1CCCCC1)N1CCN(c2ccccc2F)CC1	> 4 mM (inactive)
CCn1c(-c2c[nH]c3ccccc23)n[nH]c1=S	> 4 mM (inactive)
Nc1ccc(Cc2ccc(N)cc2)cc1	> 4 mM (inactive)
S=C(NC1CC1)NN1CCOCC1	> 4 mM (inactive)
CC1=C(/C=C/C(C)=C/C=C/C(C)=C/C=C/C=C(C)/C=C/C=C(C)/C=C/C2=C(C)CCCC2(C)C)C(C)(C)CCC1	> 4 mM (inactive)
CCn1cnc2cc([N+](=O)[O-])ccc2c1=O	> 4 mM (inactive)
O=C(NCc1ccccc1Cl)c1cnn2cccnc12	> 4 mM (inactive)
Nc1cc(F)ccc1-n1ccnc1	> 4 mM (inactive)
CC(=O)O[C@@H]1CC2C(C)(C)C(=O)[C@@H]3O[C@@H]3[C@]2(C)C2CC[C@]3(C)C(=CC(=O)O[C@H]3c3ccoc3)[C@@]21C (stereo partly specified)	> 4 mM (inactive)
CC(C)(O)P(C)(=O)c1ccccc1 (stereo unspecified)	> 4 mM (inactive)
CC1(C)N=C2C(=[N+]1[O-])CCC/C2=N\O	> 4 mM (inactive)
Cc1onc(-c2ccccc2)c1C(=O)Nc1ccncc1	> 4 mM (inactive)

SMILES	Kd
Cc1nnc(SCc2ccon2)n1-c1ccccc1	> 4 mM (inactive)
N#CCc1nc2ccccc2s1	> 4 mM (inactive)
O=CN1CCN(C(=O)c2ccc(F)cc2)CC1	> 4 mM (inactive)
Cn1c(SCC(N)=O)nc2c1c(=O)[nH]c(=O)n2C	> 4 mM (inactive)
Cc1cc(SCC(=O)Nc2nccs2)nc(=O)[nH]1	> 4 mM (inactive)
O=C(NCC1CCNCC1)c1ccccn1	> 4 mM (inactive)
Cc1ccc(NC(=O)CN2C(=O)CSC2=O)cc1	> 4 mM (inactive)
O=C1COc2cc(O)ccc21	> 4 mM (inactive)
CC(C)CCCC(C)[C@H]1CCC2C3CC=C4C[C@@H](O)CC[C@]4(C)C3CC[C@@]21C (stereo partly specified)	> 4 mM (inactive)
COc1ccc(N2C(=N)C(C)(C)NC2=O)cc1	> 4 mM (inactive)
O=c1c2ccccc2nc2n1CCC2O (stereo unspecified)	> 4 mM (inactive)
CSc1ccc2nnc(-c3cccnc3)n2n1	> 4 mM (inactive)
Nc1ncnc(Cl)c1[N+](=O)[O-]	> 4 mM (inactive)
Cc1cccc(C)c1N1C(=O)CCC1=O	> 4 mM (inactive)
O=C(Nc1nnc(C(F)(F)F)s1)c1cccnc1	> 4 mM (inactive)
S=c1[nH]c2cccnc2[nH]1	> 4 mM (inactive)
NC(=O)C1CCN(c2nccc(C(F)(F)F)n2)CC1	> 4 mM (inactive)
Cn1ncc(C(=O)O)c1-c1ccccc1	> 4 mM (inactive)
COc1c2ccoc2c(OC)c2oc(=O)ccc12	> 4 mM (inactive)
NC(=O)CC1NC(=O)c2ccccc21 (stereo unspecified)	> 4 mM (inactive)
Nc1cccc(C(=O)Nc2ccc(N)cc2Cl)c1	> 4 mM (inactive)
O=S(=O)(Cc1ccccc1Cl)Nc1ccccn1	> 4 mM (inactive)
CN1CCN(c2ccc(CN)cc2)CC1	> 4 mM (inactive)
Cc1ccc(NC(=O)c2ccccc2)s1	> 4 mM (inactive)

SMILES	Kd
Cc1ccc(-c2cc(C(=O)N3CCCC3)no2)cc1	> 4 mM (inactive)
O=C(Nc1cnccn1)c1cccc(C(F)(F)F)c1	> 4 mM (inactive)
Nc1ccc(Cl)nn1	> 4 mM (inactive)
CN1CCC(N(C)C2CCN(C)CC2)CC1	> 4 mM (inactive)
NCCc1ccc(S(N)(=O)=O)cc1	> 4 mM (inactive)
COc1c(-c2coc3cc4c(cc3c2=O)CC(O)C(C)(C)O4)ccc2c1C=CC(C)(C)O2 (stereo unspecified)	> 4 mM (inactive)
CN(C)C(=S)Nc1ccc([N+](=O)[O-])cc1	> 4 mM (inactive)
CSc1ccccc1NC(=O)c1ccoc1C	> 4 mM (inactive)
COc1ccc(CN2CCOCC2)c(C)c1C	> 4 mM (inactive)
COC(=O)Nc1nnc(-c2ccncc2)s1	> 4 mM (inactive)
Fc1ccc(Br)cc1/C=N/n1cnnc1	> 4 mM (inactive)
Cc1cc(=O)n2ccc(CN3CCOCC3)c(O)c2n1	> 4 mM (inactive)
COc1cc([C@@H]2c3cc4c(c(O)c3C[C@H]3COC(=O)[C@@H]32)OCO4)cc(OC)c1OC	> 4 mM (inactive)
C=C1C2CC[C@@]3(C)[C@H](c4ccoc4)OC(=O)C[C@]13O[C@H]1CC(=O)C(C)(C)[C@H](C(OC(C)=O)C(=O)OC)[C@@]21C (stereo partly specified)	> 4 mM (inactive)
COc1cc(/C=C/C(=O)O)ccc1O	> 4 mM (inactive)
NC(=O)c1cc(N)cc(C(N)=O)c1	> 4 mM (inactive)
CC1(C)Oc2ccc(N)cc2O1	> 4 mM (inactive)
O=C(O)/C=C1\NC(=O)c2ccccc21	> 4 mM (inactive)
O=C(O)/C=C(\CC(=O)O)C(=O)O	> 4 mM (inactive)
O=C(O)c1ccnc2ccccc12	> 4 mM (inactive)
Cc1ccc(S(=O)(=O)CC(=O)N2CCCC2)cc1	> 4 mM (inactive)
Cc1nnc(NCc2cccnc2)[nH]c1=O	> 4 mM (inactive)
NC(=O)CSc1nnc2ccc3ccccc3n12	> 4 mM (inactive)
COc1ccc(-c2cc(=O)c3c(O)c(OC)c(O[C@H]4O[C@H](CO[C@@H]5O[C@@H](C)[C@H](O)[C@@H](O)[C@H]5O)[C@@H](O)[C@H](O)[C@H]4O)cc3o2)cc1	> 4 mM (inactive)

SMILES	Kd
CC(=O)NCc1nc2ccccc2[nH]1	> 4 mM (inactive)
Cc1ccccc1NC(=O)N1CCOCC1	> 4 mM (inactive)
O=C1CCC(c2cccs2)=NN1	> 4 mM (inactive)
CC(=O)Oc1ccc2c(c1C(C)C)CCC1C(C)(C)CCC[C@]21C (stereo partly specified)	> 4 mM (inactive)
COc1cc(OC)c2c(c1Cl)OC1(C2=O)C(O)=CC(=O)CC1C (stereo unspecified)	> 4 mM (inactive)
Nc1ccccc1C(=O)CC(N)C(=O)O (stereo unspecified)	> 4 mM (inactive)
Nc1nnc(SCc2ccc(F)cc2Cl)s1	> 4 mM (inactive)
COc1ccccc1-c1n[nH]c(=O)o1	> 4 mM (inactive)
COc1ccc(-c2coc3cc(O)ccc3c2=O)c(OC)c1	> 4 mM (inactive)
COc1ccc2c(c1)OC/C(=C\c1ccc(OC)c(O)c1)C2=O	> 4 mM (inactive)
O=C1c2cccnc2C(=O)N1Cc1ccc2c(c1)OCO2	> 4 mM (inactive)
NC(N)=NCCCCN=C(N)N	> 4 mM (inactive)
Cc1nc2ccccc2c(=O)n1/N=C/c1ccncc1	> 4 mM (inactive)
CNC(=O)CC1Sc2ccccc2NC1=O (stereo unspecified)	> 4 mM (inactive)
COC(=O)c1cn(C(=O)OC)c2ccccc12	> 4 mM (inactive)
c1ccc2[nH]c(-c3cscn3)nc2c1	> 4 mM (inactive)
O=C1c2ccc(F)cc2C(=O)N1CO	> 4 mM (inactive)
CC(C)NC(=O)c1nc2ccccc2s1	> 4 mM (inactive)
OC1CCNC2CCCCC12 (stereo unspecified)	> 4 mM (inactive)
COC(=O)C[C@H]1C(C)(C)C(OC(C)=O)[C@]2(O)C=C3C(CC[C@]4(C)C3CC(=O)O[C@H]4c3ccoc3)C1(C)C2=O (stereo partly specified)	> 4 mM (inactive)
O=C(O)c1[nH]nc2c1COc1ccccc1-2	> 4 mM (inactive)
COCc1cc(Cl)nc(-c2csc(C)n2)n1	> 4 mM (inactive)
O=C1NC(=O)C(C(=S)Nc2ccccc2)C(=O)N1	> 4 mM (inactive)
COC(=O)c1cccc(N)c1	> 4 mM (inactive)

SMILES	Kd
OCc1ccc(CN2CCOCC2)cc1	> 4 mM (inactive)
Cc1cc(C)n(S(=O)(=O)c2ccc(C(C)(C)C)cc2)n1	> 4 mM (inactive)
N#Cc1ccccc1CSc1ccccn1	> 4 mM (inactive)
Cc1sc(N)c(C(N)=O)c1C	> 4 mM (inactive)
CC(C)c1c(O)c(-c2cc3c(c(C(C)C)c2O)CCC2C(C)(C)CCC[C@]32C)cc2c1CCC1C(C)(C)CCC[C@]21C (stereo partly specified)	> 4 mM (inactive)
Nc1cc(N)nc(SCc2ccccc2)n1	> 4 mM (inactive)
Cn1c(=O)c2[nH]cnc2n(-c2ccccc2)c1=O	> 4 mM (inactive)
Cc1nc(NC(=O)c2cccnc2)ccc1Br	> 4 mM (inactive)
OC12CC3CC(CC(C3)C1)C2	> 4 mM (inactive)
CC(=O)c1ccc[nH]1	> 4 mM (inactive)
O=C1NC(=S)N/C1=C\c1cccc([N+](=O)[O-])c1	> 4 mM (inactive)
CCCCCCCCCCCCCCC(C(=O)O)C(O)(CC(=O)OC)C(=O)O (stereo unspecified)	> 4 mM (inactive)
NS(=O)(=O)c1ccc(NC(=O)c2cccs2)cc1	> 4 mM (inactive)
CSc1nc(=O)[nH]c2c1CCC2	> 4 mM (inactive)
CNC(Cc1c[nH]c2ccccc12)C(=O)O (stereo unspecified)	> 4 mM (inactive)
Cc1noc(-c2ccccc2)c1C(=O)O	> 4 mM (inactive)
O=C(Oc1ccc(-c2nnco2)cc1)N1CCOCC1	> 4 mM (inactive)
Cc1cccc(CSc2nncc(=O)[nH]2)c1	> 4 mM (inactive)
COCC(=O)Nc1nc2ccc(C)cc2s1	> 4 mM (inactive)
CCN1CCC(=NO)CC1	> 4 mM (inactive)
